Data reported in article doi:10.1101/2025.10.14.682402v1 (biorxiv, 2025).

Legend:
ULK2 [1] = target: T1, ULK2 (Homo sapiens, UniProt Q8IYT8); assay: ADP-Glo kinase assay; format: biochemical
T1 sequence (Q8IYT8 1-1036): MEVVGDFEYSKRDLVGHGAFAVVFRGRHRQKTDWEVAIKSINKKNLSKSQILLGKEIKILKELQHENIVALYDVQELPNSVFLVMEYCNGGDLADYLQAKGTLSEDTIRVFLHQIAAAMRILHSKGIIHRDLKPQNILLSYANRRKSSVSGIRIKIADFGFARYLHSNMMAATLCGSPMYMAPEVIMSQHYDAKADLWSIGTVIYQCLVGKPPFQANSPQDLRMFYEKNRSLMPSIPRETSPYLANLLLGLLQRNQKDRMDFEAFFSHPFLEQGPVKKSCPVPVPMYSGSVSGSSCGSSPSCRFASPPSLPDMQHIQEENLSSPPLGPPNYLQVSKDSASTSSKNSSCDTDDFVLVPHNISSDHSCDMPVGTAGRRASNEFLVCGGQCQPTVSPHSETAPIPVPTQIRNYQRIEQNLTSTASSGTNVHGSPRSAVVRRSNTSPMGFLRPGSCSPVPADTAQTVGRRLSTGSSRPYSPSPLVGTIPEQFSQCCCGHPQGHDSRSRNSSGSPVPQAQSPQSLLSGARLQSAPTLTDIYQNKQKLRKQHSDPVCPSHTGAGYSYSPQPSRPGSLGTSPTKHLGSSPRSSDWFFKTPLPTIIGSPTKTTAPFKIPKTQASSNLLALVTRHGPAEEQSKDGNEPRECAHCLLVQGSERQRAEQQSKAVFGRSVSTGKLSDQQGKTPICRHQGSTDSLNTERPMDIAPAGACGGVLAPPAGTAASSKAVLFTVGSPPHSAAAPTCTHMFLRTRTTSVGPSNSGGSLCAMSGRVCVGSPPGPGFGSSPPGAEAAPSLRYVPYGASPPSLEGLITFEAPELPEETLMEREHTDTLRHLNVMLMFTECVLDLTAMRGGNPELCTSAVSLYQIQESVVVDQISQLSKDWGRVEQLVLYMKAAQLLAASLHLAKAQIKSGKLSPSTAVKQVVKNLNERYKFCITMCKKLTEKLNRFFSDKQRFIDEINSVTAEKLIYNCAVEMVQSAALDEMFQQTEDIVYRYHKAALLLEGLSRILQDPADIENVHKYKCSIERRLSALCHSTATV

kinase domain of ULK1 = target: T2, kinase domain of ULK1 (Homo sapiens, UniProt O75385); conditions: binder
T2 sequence (O75385 1-283 limits assumed): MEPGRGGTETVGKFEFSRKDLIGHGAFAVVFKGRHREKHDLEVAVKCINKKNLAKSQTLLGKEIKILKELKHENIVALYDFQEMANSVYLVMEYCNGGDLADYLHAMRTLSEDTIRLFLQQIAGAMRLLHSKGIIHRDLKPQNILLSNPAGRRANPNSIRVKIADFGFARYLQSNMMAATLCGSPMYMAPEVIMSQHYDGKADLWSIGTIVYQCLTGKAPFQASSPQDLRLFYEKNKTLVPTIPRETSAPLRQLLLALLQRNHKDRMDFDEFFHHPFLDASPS

kinase domain of ULK2 = target: T3, kinase domain of ULK2 (Homo sapiens, UniProt Q8IYT8); conditions: binder
T3 sequence (Q8IYT8 1-276 limits assumed): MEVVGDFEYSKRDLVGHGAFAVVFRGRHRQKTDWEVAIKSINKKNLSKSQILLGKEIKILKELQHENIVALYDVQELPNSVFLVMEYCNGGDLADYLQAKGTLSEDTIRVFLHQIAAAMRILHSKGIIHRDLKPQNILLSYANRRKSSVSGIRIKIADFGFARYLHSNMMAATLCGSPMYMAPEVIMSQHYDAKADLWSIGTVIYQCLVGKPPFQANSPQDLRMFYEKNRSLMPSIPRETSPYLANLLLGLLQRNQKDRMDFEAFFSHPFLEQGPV

ULK1 [2] = target: T4, ULK1 (Homo sapiens, UniProt O75385); assay: ADP-Glo kinase assay; format: biochemical
T4 sequence (O75385 1-1050): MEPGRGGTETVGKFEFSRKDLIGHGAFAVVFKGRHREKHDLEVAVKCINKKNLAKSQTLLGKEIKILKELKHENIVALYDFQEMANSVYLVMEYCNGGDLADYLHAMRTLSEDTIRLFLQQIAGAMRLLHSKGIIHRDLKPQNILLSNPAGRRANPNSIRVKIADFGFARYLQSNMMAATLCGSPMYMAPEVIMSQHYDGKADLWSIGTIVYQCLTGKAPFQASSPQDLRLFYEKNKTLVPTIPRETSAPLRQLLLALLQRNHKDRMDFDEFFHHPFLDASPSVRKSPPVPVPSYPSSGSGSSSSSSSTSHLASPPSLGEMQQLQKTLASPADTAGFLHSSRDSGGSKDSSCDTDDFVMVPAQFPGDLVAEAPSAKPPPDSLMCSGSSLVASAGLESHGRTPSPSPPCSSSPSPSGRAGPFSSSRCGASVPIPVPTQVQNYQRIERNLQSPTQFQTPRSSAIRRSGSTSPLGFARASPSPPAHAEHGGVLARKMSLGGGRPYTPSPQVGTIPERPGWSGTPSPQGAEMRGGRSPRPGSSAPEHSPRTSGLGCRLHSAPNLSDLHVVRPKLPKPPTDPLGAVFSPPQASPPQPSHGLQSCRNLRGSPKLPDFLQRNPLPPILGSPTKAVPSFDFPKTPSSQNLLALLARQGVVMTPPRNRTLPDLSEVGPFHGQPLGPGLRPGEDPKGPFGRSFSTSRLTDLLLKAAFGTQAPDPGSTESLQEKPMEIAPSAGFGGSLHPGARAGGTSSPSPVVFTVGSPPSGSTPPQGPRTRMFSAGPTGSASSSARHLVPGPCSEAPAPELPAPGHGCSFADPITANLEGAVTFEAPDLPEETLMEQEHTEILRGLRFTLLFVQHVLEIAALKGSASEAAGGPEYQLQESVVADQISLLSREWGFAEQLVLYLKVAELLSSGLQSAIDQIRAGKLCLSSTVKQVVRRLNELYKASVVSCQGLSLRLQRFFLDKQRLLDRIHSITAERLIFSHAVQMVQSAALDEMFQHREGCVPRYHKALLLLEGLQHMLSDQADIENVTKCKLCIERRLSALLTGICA

ULK2 [3] = target: T1, ULK2; assay: biochemical
ULK1 [4] = target: T4, ULK1; assay: biochemical
ULK1 (NanoBRET) = target: T5, ULK1 (NanoBRET) (Homo sapiens, UniProt O75385); assay: NanoBRET cellular target engagement; format: cell-based
T5 sequence (O75385 1-1050): T4 sequence (O75385 1-1050)

Compound | IC50 (ULK2 [1]) [nM] | ULK1 PTS (ºC) (kinase domain of ULK1) [°C] | ULK2 PTS (ºC) (kinase domain of ULK2) [°C] | IC50 (ULK1 [2]) [nM] | IC50 (ULK2 [3]) [nM] | IC50 (ULK1 [4]) [nM] | IC50 (ULK1 (NanoBRET)) [nM]
CNC(=O)c1ccccc1Nc1ccnc(Nc2cc(OC)c(OC)c(OC)c2)n1 [6q, N-Methyl-2-(2-(3,4,5-trimethoxyphenylamino)pyrimidin-4-ylamino)benzamide] | 30000 | 5.18 ± 0.17 | 2.71 ± 0.09 | 603 | > 3000 | – | –
CNC(=O)c1ccccc1Nc1nc(Nc2cc(OC)c(OC)c(OC)c2)ncc1C(F)(F)F [6p, N-Methyl-2-(5-(trifluoromethyl)-2-(3,4,5-trimethoxyphenylamino)pyrimidin-4-ylamino)benzamide] | 7 | 16.50 ± 0.15 | 15.81 ± 0.06 | 10 | – | – | 10

Now from value to compound:

IC50 (ULK2 [1]) [nM] | ULK1 PTS (ºC) (kinase domain of ULK1) [°C] | ULK2 PTS (ºC) (kinase domain of ULK2) [°C] | IC50 (ULK1 [2]) [nM] | IC50 (ULK2 [3]) [nM] | IC50 (ULK1 [4]) [nM] | IC50 (ULK1 (NanoBRET)) [nM] | Compound
> 3000 | 3.65 ± 0.07 | 2.31 ± 0.09 | 153 | – | – | – | CNC(=O)c1ccccc1Nc1nc(Nc2ccc(N3CCOCC3)cc2OC)ncc1Cl [6a, 2-(5-Chloro-2-(2-methoxy-4-morpholinophenylamino)pyrimidin-4-ylamino)-N-methylbenzamide]
172 | 7.70 ± 0.43 | 3.73 ± 0.81 | – | – | 8 ± 2 | 103 | CNC(=O)c1ccccc1Nc1nc(Nc2ccc3c(c2)CCC(=O)N3)ncc1C(F)(F)F [6d, N-Methyl-2-(2-(2-oxo-1,2,3,4-tetrahydroquinolin-6-ylamino)-5-(trifluoromethyl)pyrimidin-4-ylamino)benzamide]
1440 | 0.15 ± 0.06 | 0.43 ± 0.34 | 22 | – | – | – | CNC(=O)c1ccccc1Nc1nc(Nc2ccc3c(c2)CCC(=O)N3)ncc1Cl [6e, 2-(5-Chloro-2-(2-oxo-1,2,3,4-tetrahydroquinolin-6-ylamino)pyrimidin-4-ylamino)-N-methylbenzamide]
